This is an account of results in patent publication US11807650B2, “NMDA receptor modulators and uses thereof” (Novartis AG, priority 2016, dated 2023).

Each structure is given as a SMILES string.

T1 sequence (O15399 28-1336, other chains not shown): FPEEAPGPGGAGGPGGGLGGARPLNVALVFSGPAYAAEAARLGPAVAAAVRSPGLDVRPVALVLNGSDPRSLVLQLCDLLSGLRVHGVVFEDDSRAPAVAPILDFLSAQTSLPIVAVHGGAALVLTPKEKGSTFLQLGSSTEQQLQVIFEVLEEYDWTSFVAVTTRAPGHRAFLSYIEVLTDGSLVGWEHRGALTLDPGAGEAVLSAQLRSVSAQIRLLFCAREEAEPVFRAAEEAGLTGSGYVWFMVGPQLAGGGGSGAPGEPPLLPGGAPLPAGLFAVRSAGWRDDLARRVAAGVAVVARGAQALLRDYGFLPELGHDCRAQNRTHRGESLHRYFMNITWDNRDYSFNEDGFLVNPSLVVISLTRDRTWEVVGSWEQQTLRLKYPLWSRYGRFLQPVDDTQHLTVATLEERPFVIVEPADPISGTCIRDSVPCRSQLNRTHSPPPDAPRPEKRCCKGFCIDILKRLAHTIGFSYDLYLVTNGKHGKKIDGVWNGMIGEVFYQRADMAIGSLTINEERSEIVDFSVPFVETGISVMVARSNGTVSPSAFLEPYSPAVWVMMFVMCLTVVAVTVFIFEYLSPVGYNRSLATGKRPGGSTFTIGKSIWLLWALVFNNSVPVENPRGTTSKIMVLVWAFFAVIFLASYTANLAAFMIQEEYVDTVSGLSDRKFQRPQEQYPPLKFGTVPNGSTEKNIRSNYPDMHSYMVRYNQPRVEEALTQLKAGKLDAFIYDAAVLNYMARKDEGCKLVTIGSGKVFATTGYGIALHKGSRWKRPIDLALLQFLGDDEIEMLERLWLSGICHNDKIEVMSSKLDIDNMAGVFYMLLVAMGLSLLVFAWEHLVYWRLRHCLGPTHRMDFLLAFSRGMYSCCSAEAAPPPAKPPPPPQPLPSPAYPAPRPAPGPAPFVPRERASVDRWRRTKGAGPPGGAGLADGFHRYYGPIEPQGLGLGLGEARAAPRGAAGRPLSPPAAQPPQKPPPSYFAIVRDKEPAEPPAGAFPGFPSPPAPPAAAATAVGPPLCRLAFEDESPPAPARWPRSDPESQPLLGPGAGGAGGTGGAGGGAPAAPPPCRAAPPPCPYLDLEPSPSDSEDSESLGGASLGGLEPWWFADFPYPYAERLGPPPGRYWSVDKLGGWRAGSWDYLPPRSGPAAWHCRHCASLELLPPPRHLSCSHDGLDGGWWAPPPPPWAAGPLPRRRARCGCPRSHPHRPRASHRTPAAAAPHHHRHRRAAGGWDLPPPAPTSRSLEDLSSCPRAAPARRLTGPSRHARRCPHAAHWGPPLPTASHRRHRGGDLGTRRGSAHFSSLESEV

The assay has as its target T1, human GRIN1 (transcript variant NR1-3) and GRIN2D expressed in Xenopus oocytes (Homo sapiens, UniProt O15399).
T1 construct: GenScript (GRIN2D synthesis) SC115601; host or cells: Xenopus oocytes injected with cRNA (1 GluN1 : 2 GluN2)
Put plainly: NR2D oocyte potentiation assay (two-electrode voltage clamp). The assay is classed as cell-based. The settings on record: 10 uM test compound; glutamate and glycine 10 μM each; holding potential −40 mV. The gist of the method:
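Xenopus oocytes were defolliculated with collagenase, then injected with 50 nL of cRNA encoding human GluN1 (NR1-3 variant) and GluN2D mixed 1:2 and kept 72 h at 16° C. Two-electrode voltage clamp at −40 mV recorded currents; after 10 μM glutamate plus 10 μM glycine reached plateau, test compound was added until a new plateau formed.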
Background: In two-electrode clamp one electrode senses voltage and the other passes current.
`CC1CCc2nc(-c3ccc(C(C)(C)C)nc3)c(C#N)c(=O)n2C1` (centres unmarked) [Example 34, 2-(6-(tert-butyl)pyridin-3-yl)-7-methyl-4-oxo-6,7,8,9-tetrahydro-4H-pyrido[1,2-a]pyrimidine-3-carbonitrile]: the activation at 10 µM was 10 to 100%. The figure for `CC(C)(C)c1ccc(-c2nc3n(c(=O)c2C#N)CC(C(F)(F)F)CS3)cn1` (centres unmarked) [Example 143, 8-(6-(tert-butyl)pyridin-3-yl)-6-oxo-3-(trifluoromethyl)-3,4-dihydro-2H,6H-pyrimido[2,1-b][1,3]thiazine-7-carbonitrile] is 100 to 500%; for `CC(C)(C)c1ccc(-c2cc3n(c(=O)c2C#N)CCCS3)cn1` [Example 70, 8-(6-(tert-butyl)pyridin-3-yl)-6-oxo-3,4-dihydro-2H,6H-pyrido[2,1-b][1,3]thiazine-7-carbonitrile] it is above 1000%; for `CC1CSc2cc(-c3ccc(C(C)(C)C)nc3)c(C#N)c(=O)n2C1` (centres unmarked) [Example 69, 8-(6-(tert-butyl)pyridin-3-yl)-3-methyl-6-oxo-3,4-dihydro-2H,6H-pyrido[2,1-b][1,3]thiazine-7-carbonitrile] it is above 1000%.

Take `CSc1cc(-c2nc3n(c(=O)c2C#N)CCCS3)cnc1C(C)(C)C` [Example 62, 8-(6-(tert-butyl)-5-(methylthio)pyridin-3-yl)-6-oxo-3,4-dihydro-2H,6H-pyrimido[2,1-b][1,3]thiazine-7-carbonitrile]: the activation at 10 µM is above 1000%. Regarding `CC(C)(C)c1ccc(-c2nc3n(c(=O)c2C#N)CC(F)CS3)cn1` (centres unmarked) [Example 16, 8-(6-(tert-butyl)pyridin-3-yl)-3-fluoro-6-oxo-3,4-dihydro-2H,6H-pyrimido[2,1-b][1,3]thiazine-7-carbonitrile], the activation at 10 µM is 10 to 100%. Then `CC(C)(C)c1ccc(-c2nc3n(c(=O)c2C#N)CC=CCS3)cn1` [Example 2, 2-(6-(tert-butyl)pyridin-3-yl)-4-oxo-6,9-dihydro-4H-pyrimido[2,1-b][1,3]thiazepine-3-carbonitrile], with 10 to 100%; and `CC1CSc2cc(-c3ccc(C4(C)CC4)nc3)c(C#N)c(=O)n2C1` (centres unmarked) [Example 72, 3-methyl-8-(6-(1-methylcyclopropyl)pyridin-3-yl)-6-oxo-3,4-dihydro-2H,6H-pyrido[2,1-b][1,3]thiazine-7-carbonitrile], with above 1000%.

As for `C[S+]([O-])c1c(-c2ccc(C(C)(C)C)cc2)nc2n(c1=O)CCCC2` (centres unmarked) [Example 26, 2-(4-(tert-butyl)phenyl)-3-(methylsulfinyl)-6,7,8,9-tetrahydro-4H-pyrido[1,2-a]pyrimidin-4-one], the activation at 10 µM is below 10%. The figure for `COC(C)(C)c1ccc(-c2nc3n(c(=O)c2C#N)CCCS3)cn1` [Example 120] is 10 to 100%.

For the compound `C[C@H]1CSc2nc(-c3cnc(C(C)(C)C)c(F)c3)c(C#N)c(=N)n2C1` [Example 112, (R)-8-(6-(tert-butyl)-5-fluoropyridin-3-yl)-6-imino-3-methyl-3,4-dihydro-2H,6H-pyrimido[2,1-b][1,3]thiazine-7-carbonitrile], the activation at 10 µM was above 1000%. With `C[C@@H]1CSc2nc(-c3cnc(C(C)(C)C)c(O)c3)c(C#N)c(=O)n2C1` [Example 140, (S)-8-(6-(tert-butyl)-5-hydroxypyridin-3-yl)-3-methyl-6-oxo-3,4-dihydro-2H,6H-pyrimido[2,1-b][1,3]thiazine-7-carbonitrile], the activation at 10 µM lay within 500 to 1000%. The figure for `CC1CSc2nc(-c3cnc(C(C)(C)C)c(O)c3)c(C#N)c(=O)n2C1` (centres unmarked) [Example 126, 8-(6-(tert-butyl)-5-hydroxypyridin-3-yl)-3-methyl-6-oxo-3,4-dihydro-2H,6H-pyrimido[2,1-b][1,3]thiazine-7-carbonitrile] is above 1000%; for `N#Cc1c(-c2ccc(C3(C(F)(F)F)CC3)cc2)nc2n(c1=O)CCCS2` [Example 47, 6-oxo-8-(4-(1-(trifluoromethyl)cyclopropyl)phenyl)-3,4-dihydro-2H,6H-pyrimido[2,1-b][1,3]thiazine-7-carbonitrile] it is 500 to 1000%.

Turning to `CCC1CSc2nc(-c3ccc(C(C)(C)C)nc3)c(C#N)c(=O)n2C1` (centres unmarked) [Example 81, 8-(6-tert-butylpyridin-3-yl)-3-ethyl-6-oxo-2H,3H,4H, 6H-pyrimido [2,1-b][1,3] thiazine-7-carbonitrile], the activation at 10 µM was above 1000%.

With `CC(C)(C)c1ncc(-c2nc3n(c(=O)c2C#N)C[C@@H](CO)CS3)cc1F` [Example 157, (S)-8-(6-(tert-butyl)-5-fluoropyridin-3-yl)-3-(hydroxymethyl)-6-oxo-3,4-dihydro-2H,6H-pyrimido[2,1-b][1,3]thiazine-7-carbonitrile], the activation at 10 µM is above 1000%. Then `N#Cc1c(-c2ccc(Br)nc2)nc2n(c1=O)CCCS2` [Example 57, 8-(6-bromopyridin-3-yl)-6-oxo-3,4-dihydro-2H,6H-pyrimido[2,1-b][1,3]thiazine-7-carbonitrile], with 10 to 100%; and `C[C@@H]1CSc2nc(-c3ccc(C(C)(C)N(C)C)nc3)c(C#N)c(=O)n2C1` [Example 134, (S)-8-(6-(2-(dimethylamino)propan-2-yl)pyridin-3-yl)-3-methyl-6-oxo-3,4-dihydro-2H,6H-pyrimido[2,1-b][1,3]thiazine-7-carbonitrile], with below 10%; and `C[C@H]1CSc2nc(-c3cnc(C(C)(C)C)nc3)c(C#N)c(=N)n2C1` [Example 100, (R)-8-(2-(tert-butyl)pyrimidin-5-yl)-6-imino-3-methyl-3,4-dihydro-2H,6H-pyrimido[2,1-b][1,3]thiazine-7-carbonitrile], with above 1000%. The figure for `CN1CCCn2c1nc(-c1ccc(C(C)(C)C)nc1)c(C#N)c2=O` [Example 94, 8-(6-(tert-butyl)pyridin-3-yl)-1-methyl-6-oxo-1,3,4,6-tetrahydro-2H-pyrimido[1,2-a]pyrimidine-7-carbonitrile] is 100 to 500%.
